What all share (format): functional, cell-based
A short description of assay [1]: Antiproliferative activity against human LXF 529L cells.
A short description of assay [2]: Antiproliferative activity against human OVXF 899L cells.
In the next assay the test system is SF-268. Nature of the assay: Antiproliferative activity against human SF268 cells.
Assay [3] can be described thus: Antiproliferative activity against human MEXF 394NL cells.
The nature of assay [4]: Antiproliferative activity against human CNXF 498NL cells.
Assay [5] in a line: Antiproliferative activity against human PC3M cells. The following applies: PC-3M.
The test system of a further assay is CWR22R. Nature of the assay: Antiproliferative activity against human 22RV1 cells.
A further assay relates to HT-29. As to the kind of experiment: Antiproliferative activity against human HT29 cells.
Assay [6] in a line: Antiproliferative activity against human MAXF 401NL cells.
The nature of assay [7]: Antiproliferative activity against human RXF 486NL cells […]. In general terms: Xenograft models place foreign cells or tissue in a host animal.
Assay [8] in a line: Antiproliferative activity against human LXF 526L cells.
Assay [9] is described as follows: Antiproliferative activity against human PXF 1752L cells.
In another assay the test system is T-24. Nature of the assay: Antiproliferative activity against human T24 cells.
A short description of assay [10]: Antiproliferative activity against human RXF 1781L cells.
A short description of assay [11]: Antiproliferative activity against human HNXF 536L cells.
Assay [12] in a line: Antiproliferative activity against human LXF 289L cells.
In a further assay the test system is DU-145. As to the kind of experiment: Antiproliferative activity against human DU145 cells.
Assay [13] can be described thus: Antiproliferative activity against human MEXF 514NL cells.
The nature of assay [14]: Antiproliferative activity against human MEXF 462NL cells.
Assay [15] can be described thus: Antiproliferative activity against human BXF 1218L cells.
Assay [16] can be described thus: Antiproliferative activity against human PAXF 1675L cells.
Assay [17] in a line: Antiproliferative activity against human GXF 251L cells.
In the next assay the test system is HCT-116. As to the kind of experiment: Antiproliferative activity against human HCT116 cells.
A short description of assay [18]: Antiproliferative activity against human MEXF 276L cells. To be noted: MEXF276L.
A further assay relates to NCI-H460. Nature of the assay: Antiproliferative activity against human H460 cells.
Assay [19] in a line: Antiproliferative activity against human UXF 1138L cells.
For another assay, the system named is MCF7. Nature of the assay: Antiproliferative activity against human MCF7 cells.
Assay [20] can be described thus: Antiproliferative activity against human RXF 944NL cells.
Assay [21] in a line: Antiproliferative activity against human MEXF 520L cells.
A further assay concerns OVCAR-3. Nature of the assay: Antiproliferative activity against human OVCAR-3 cells.
The test system of another assay is LNCaP. As to the kind of experiment: Antiproliferative activity against human LNCAP cells.
Assay [22] is described as follows: Antiproliferative activity against human LXF 1121L cells.
In the next assay the test system is PANC-1. Nature of the assay: Antiproliferative activity against human PANC1 cells.
Assay [23] is described as follows: Antiproliferative activity against human OVXF 1619L cells.
Assay [24] in a line: Antiproliferative activity against human LXF 629L cells.
Assay [25] can be described thus: Antiproliferative activity against human RXF 393NL cells.

A word on the IC50: it is the concentration at which inhibition is half-maximal. For the molecule `O=C1N[C@H]2n3c(cc(Br)c3Br)C(=O)N3CCC[C@]23N1`, the concentration for half-maximal inhibition (IC50) in assay [1] (lxf 529l) is more than 10 µM; in [2] (ovxf 899l), more than 10 µM; in the assay with SF-268 (sf-268), more than 10 µM; in assay [3] (mexf 394nl), more than 10000 nM; in assay [4] (cnxf 498nl), more than 10 µM.
Consider `O=C1NC2n3c(cc(Br)c3Br)C(=O)N3CCCC23N1` (racemic), for which the concentration for half-maximal inhibition (IC50) in assay [5] was 2.42 µM; in the assay with CWR22R it was more than 10 µM; in the assay on HT-29, more than 10 µM; in [6], more than 10 µM; in [7], more than 10 µM; in [8], more than 10 µM. Also, the IC50 in assay [9] is more than 10 µM; in the assay on T-24, more than 10 µM; in assay [1] (Homo sapiens, LXF 529L), 0.96 µM; in [10] it was more than 10 µM; in [2] (Homo sapiens, OVXF 899L), 0.6 µM; in assay [11], more than 10 µM. In addition, the 50% inhibitory concentration (IC50) with SF-268 (Homo sapiens, SF-268) was 2.28 µM; in assay [12], more than 10 µM; in the assay with DU-145, more than 10 µM; in assay [13], 4.41 µM; in [14], more than 10 µM; in assay [15] it was more than 10 µM. For the same molecule, the IC50 in assay [3] (Homo sapiens, MEXF 394NL) is 1370 nM; in assay [16], more than 10 µM; in assay [17], more than 10 µM; in the assay with HCT-116, more than 10 µM; in assay [18], more than 10 µM; in the assay with NCI-H460, more than 10 µM. For the same molecule, the IC50 in assay [19] was 1.21 µM; with MCF7, more than 10 µM; in assay [20] it was more than 10 µM; in assay [21], more than 10 µM; with OVCAR-3, more than 10 µM; in the assay with LNCaP, more than 10 µM. Also, the IC50 is more than 10 µM in [22]; 0.93 µM in assay [4] (Homo sapiens, CNXF 498NL); 4.06 µM with PANC-1; 2.23 µM in assay [23]; more than 10 µM in assay [24]; more than 10 µM in assay [25].
Turning to `O=C1c2cc(Br)c(Br)n2C2C(Cl)(Cl)C23CCCN13` (racemic), the IC50 was found to be 9.84 µM in assay [1] (Homo sapiens, LXF 529L); 5.37 µM in assay [2] (Homo sapiens, OVXF 899L); 3.91 µM in the assay with SF-268 (Homo sapiens, SF-268); 7870 nM in assay [3] (Homo sapiens, MEXF 394NL); 5.84 µM in [4] (Homo sapiens, CNXF 498NL).
In the case of `CCOC(=O)N1C(=O)N(OS(=O)(=O)c2ccc(C)cc2)C23CCCN2C(=O)c2cc(Br)c(Br)n2C13` (racemic), the IC50 in assay [5] is 8.6 µM; with CWR22R, more than 5.92 µM; with HT-29, more than 10 µM; in assay [6] it was 8.16 µM; in assay [7], more than 10 µM; in [8] it was 7.96 µM. Further, the IC50 in [9] was more than 10 µM; in the assay on T-24, 9.98 µM; in [1] (Homo sapiens, LXF 529L), more than 10 µM; in assay [10], more than 10 µM; in [2] (Homo sapiens, OVXF 899L) it was 8.89 µM; in [11] it was 7.24 µM. Further, the IC50 in the assay on SF-268 (Homo sapiens, SF-268) is 6.45 µM; in [12], more than 10 µM; with DU-145 it was more than 10 µM; in assay [13] it was more than 10 µM; in [14], more than 10 µM; in assay [15], 7.42 µM. For the same molecule, the IC50 in [3] (Homo sapiens, MEXF 394NL) is 4020 nM; in [16] it was more than 10 µM; in assay [17], more than 10 µM; with HCT-116, more than 10 µM; in assay [18], 9.44 µM; in the assay with NCI-H460, more than 10 µM. Further, the concentration for half-maximal inhibition (IC50) in [19] is 8.96 µM; in the assay on MCF7, more than 10 µM; in assay [20] it was 6.3 µM; in assay [21], more than 10 µM; with OVCAR-3 it was more than 10 µM; in the assay on LNCaP, more than 10 µM. Also, the IC50 was more than 10 µM in assay [22]; more than 10 µM in assay [4] (Homo sapiens, CNXF 498NL); 5 µM in the assay on PANC-1; 4.83 µM in [23]; 6.52 µM in [24]; more than 10 µM in assay [25].
With `CN1C(=O)c2cc(Br)c(Br)n2C2C1C2(Cl)Cl` (racemic), the IC50 in assay [1] (Homo sapiens, LXF 529L) was more than 10 µM; in [2] (Homo sapiens, OVXF 899L), more than 10 µM; with SF-268 (Homo sapiens, SF-268), more than 10 µM; in assay [3] (Homo sapiens, MEXF 394NL), 1350 nM; in assay [4] (Homo sapiens, CNXF 498NL) it was more than 10 µM.
In the case of `O=C1N[C@H]2n3c(cc(Br)c3Br)C(=O)N3CCC[C@]23N1` [DIBROMOPHAKELLSTATIN], the IC50 came out at 1.62 µM in assay [1] (lxf 529l); 0.05 µM in assay [2] (ovxf 899l); 0.55 µM in the assay on SF-268 (sf-268); 1350 nM in assay [3] (mexf 394nl); 0.72 µM in assay [4] (cnxf 498nl).

For the origin of these results see ChEMBL document CHEMBL1146284, “Antitumor activity of the marine natural product dibromophakellstatin in vitro” (Bioorg Med Chem Lett, 2007).
